Assay results published in ChEMBL document CHEMBL6092156, “Design and development of a series of 4-(piperazin-1-yl)pyrimidines as irreversible menin inhibitors” (Eur J Med Chem, 2024).
pIC50: −log10 of the molar value.

What was measured:
[1] = target: Menin/Histone-lysine N-methyltransferase MLL (Homo sapiens, UniProt O00255); assay: Inhibition of menin (unknown origin)/N-terminal FITC-labeled MLL1 peptide (unknown origin) interaction incubated for 30 min by fluorescence polarization assay; format: protein assay
MV4-11 [2] = assay: Antiproliferative activity against human menin-sensitive MV4-11 cells assessed as inhibition of cell growth incubated for 7 days by MTS assay; format: functional, cell-based; settings: MV4-11, 168 h
REH = assay: Antiproliferative activity against human menin-insensitive REH cells assessed as inhibition of cell growth incubated for 7 days by MTS assay; format: functional, cell-based; settings: 168 h
[3] = Suppression of MEN1 gene transcription in human MV4-11 cells assessed as protein synthesis by measuring fold change at 50 ug/ml incubated for 12 hrs relative to control; format: functional; settings: dose 50 µg/ml
[4] = Suppression of MEN1 gene transcription in human MV4-11 cells assessed as protein synthesis by measuring fold change at 50 ug/ml incubated for 24 hrs relative to control; format: functional; settings: dose 50 µg/ml
[5] = Suppression of MEN1 gene transcription in human MV4-11 cells assessed as protein synthesis by measuring fold change at 50 ug/ml incubated for 36 hrs relative to control; format: functional; settings: dose 50 µg/ml
[6] = Suppression of MEN1 gene transcription in human MV4-11 cells assessed as protein synthesis by measuring fold change at 50 ug/ml incubated for 48 hrs relative to control; format: functional; settings: dose 50 µg/ml
[7] = Suppression of MEN1 gene transcription in human MV4-11 cells assessed as protein synthesis by measuring fold change at 20 nM incubated for 16 hrs relative to control; format: functional
MV4-11 [8] = assay: Antiproliferative activity against human MV4-11 cells assessed as cell growth inhibition after 4 days; format: functional, cell-based; settings: MV4-11, 96 h
[9] = Cytotoxicity against human PBMC cells assessed as cell viability incubated for 7 days by MTS assay; format: toxicity, cell-based

Chain of Menin/Histone-lysine N-methyltransferase MLL (O00255 whole entry): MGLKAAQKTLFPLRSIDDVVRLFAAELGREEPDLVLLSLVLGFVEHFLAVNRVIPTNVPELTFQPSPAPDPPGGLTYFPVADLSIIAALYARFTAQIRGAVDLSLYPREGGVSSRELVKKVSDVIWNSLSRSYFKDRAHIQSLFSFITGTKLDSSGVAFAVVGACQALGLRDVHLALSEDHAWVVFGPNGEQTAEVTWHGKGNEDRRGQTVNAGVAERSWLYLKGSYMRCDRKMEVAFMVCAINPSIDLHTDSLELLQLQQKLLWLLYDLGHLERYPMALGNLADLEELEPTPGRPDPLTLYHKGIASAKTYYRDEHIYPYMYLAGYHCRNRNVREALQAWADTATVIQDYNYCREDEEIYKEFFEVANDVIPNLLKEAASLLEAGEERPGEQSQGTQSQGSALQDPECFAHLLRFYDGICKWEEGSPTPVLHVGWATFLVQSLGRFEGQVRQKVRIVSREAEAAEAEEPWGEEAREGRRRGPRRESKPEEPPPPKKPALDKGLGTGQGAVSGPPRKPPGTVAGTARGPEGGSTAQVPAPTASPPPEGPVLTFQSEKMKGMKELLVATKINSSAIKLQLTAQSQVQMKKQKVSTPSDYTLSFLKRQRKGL
Chain of Menin/Histone-lysine N-methyltransferase MLL (Q03164 1-2718 partner limits assumed): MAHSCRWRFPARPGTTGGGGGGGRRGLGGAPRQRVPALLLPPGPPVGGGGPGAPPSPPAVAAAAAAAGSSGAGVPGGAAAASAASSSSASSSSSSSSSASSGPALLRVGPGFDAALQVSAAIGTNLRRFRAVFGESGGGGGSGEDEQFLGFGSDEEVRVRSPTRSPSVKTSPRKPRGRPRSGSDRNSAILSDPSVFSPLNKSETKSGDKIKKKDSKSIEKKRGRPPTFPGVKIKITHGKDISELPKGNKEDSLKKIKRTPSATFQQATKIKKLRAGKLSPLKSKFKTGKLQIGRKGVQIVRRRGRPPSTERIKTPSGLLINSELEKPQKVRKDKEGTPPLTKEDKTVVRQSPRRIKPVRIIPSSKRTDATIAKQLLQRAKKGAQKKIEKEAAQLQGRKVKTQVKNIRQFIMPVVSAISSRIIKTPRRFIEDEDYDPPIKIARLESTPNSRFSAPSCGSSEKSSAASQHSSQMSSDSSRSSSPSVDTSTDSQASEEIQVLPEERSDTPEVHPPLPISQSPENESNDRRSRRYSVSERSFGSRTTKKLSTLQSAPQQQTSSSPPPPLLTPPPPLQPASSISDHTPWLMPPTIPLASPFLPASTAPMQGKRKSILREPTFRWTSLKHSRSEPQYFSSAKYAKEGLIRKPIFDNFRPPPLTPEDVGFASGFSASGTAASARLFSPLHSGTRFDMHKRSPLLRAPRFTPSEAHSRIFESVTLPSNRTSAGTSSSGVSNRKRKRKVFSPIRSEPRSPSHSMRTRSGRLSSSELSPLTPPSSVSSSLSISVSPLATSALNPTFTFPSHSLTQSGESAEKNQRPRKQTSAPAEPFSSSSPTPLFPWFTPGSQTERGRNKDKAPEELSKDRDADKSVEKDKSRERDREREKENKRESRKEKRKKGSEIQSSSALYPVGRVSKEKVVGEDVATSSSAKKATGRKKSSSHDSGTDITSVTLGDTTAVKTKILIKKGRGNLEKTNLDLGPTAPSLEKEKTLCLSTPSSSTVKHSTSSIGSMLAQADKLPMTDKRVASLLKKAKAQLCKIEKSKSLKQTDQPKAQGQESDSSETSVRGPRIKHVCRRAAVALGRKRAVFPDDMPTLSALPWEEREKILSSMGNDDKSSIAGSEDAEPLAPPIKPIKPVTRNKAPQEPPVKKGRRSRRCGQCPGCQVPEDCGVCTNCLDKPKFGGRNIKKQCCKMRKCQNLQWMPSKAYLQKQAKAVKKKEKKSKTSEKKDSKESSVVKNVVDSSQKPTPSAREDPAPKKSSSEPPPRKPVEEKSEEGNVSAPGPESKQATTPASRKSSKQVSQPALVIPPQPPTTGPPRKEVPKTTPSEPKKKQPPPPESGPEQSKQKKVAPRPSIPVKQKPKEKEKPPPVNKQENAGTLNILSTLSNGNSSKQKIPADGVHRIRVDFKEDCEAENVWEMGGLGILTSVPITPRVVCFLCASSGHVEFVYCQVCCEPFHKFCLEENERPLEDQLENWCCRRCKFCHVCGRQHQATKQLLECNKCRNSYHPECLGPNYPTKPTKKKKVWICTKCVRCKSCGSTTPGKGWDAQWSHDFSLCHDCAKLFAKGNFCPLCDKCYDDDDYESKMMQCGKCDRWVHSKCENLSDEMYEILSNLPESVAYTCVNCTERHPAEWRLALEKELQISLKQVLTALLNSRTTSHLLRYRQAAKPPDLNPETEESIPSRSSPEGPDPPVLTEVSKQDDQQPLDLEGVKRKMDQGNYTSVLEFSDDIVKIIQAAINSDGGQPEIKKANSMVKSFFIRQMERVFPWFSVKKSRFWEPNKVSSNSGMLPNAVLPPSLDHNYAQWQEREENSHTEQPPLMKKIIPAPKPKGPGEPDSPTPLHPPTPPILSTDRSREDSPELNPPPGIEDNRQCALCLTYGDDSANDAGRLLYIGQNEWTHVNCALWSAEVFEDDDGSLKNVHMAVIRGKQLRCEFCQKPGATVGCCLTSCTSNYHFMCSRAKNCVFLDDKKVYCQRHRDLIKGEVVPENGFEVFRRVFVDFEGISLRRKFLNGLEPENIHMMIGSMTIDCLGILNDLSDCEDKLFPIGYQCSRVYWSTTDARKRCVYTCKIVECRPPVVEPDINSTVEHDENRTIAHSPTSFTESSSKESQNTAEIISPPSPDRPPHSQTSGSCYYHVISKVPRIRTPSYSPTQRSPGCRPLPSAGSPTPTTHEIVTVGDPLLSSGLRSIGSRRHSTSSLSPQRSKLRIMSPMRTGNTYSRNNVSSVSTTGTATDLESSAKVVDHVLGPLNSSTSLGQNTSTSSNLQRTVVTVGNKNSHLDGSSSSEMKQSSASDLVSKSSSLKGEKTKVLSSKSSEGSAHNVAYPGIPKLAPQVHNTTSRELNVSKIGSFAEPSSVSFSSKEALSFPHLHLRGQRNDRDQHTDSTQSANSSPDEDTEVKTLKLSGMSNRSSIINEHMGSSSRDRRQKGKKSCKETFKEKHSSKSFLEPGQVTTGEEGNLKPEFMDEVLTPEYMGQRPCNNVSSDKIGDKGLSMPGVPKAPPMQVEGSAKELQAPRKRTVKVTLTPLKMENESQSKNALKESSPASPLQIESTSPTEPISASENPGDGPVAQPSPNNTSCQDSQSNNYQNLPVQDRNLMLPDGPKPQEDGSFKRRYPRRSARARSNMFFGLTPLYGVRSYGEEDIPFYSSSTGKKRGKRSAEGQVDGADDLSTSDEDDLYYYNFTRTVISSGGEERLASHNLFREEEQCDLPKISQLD
Chain of Menin/Histone-lysine N-methyltransferase MLL (Q03164 2719-3969 partner limits assumed): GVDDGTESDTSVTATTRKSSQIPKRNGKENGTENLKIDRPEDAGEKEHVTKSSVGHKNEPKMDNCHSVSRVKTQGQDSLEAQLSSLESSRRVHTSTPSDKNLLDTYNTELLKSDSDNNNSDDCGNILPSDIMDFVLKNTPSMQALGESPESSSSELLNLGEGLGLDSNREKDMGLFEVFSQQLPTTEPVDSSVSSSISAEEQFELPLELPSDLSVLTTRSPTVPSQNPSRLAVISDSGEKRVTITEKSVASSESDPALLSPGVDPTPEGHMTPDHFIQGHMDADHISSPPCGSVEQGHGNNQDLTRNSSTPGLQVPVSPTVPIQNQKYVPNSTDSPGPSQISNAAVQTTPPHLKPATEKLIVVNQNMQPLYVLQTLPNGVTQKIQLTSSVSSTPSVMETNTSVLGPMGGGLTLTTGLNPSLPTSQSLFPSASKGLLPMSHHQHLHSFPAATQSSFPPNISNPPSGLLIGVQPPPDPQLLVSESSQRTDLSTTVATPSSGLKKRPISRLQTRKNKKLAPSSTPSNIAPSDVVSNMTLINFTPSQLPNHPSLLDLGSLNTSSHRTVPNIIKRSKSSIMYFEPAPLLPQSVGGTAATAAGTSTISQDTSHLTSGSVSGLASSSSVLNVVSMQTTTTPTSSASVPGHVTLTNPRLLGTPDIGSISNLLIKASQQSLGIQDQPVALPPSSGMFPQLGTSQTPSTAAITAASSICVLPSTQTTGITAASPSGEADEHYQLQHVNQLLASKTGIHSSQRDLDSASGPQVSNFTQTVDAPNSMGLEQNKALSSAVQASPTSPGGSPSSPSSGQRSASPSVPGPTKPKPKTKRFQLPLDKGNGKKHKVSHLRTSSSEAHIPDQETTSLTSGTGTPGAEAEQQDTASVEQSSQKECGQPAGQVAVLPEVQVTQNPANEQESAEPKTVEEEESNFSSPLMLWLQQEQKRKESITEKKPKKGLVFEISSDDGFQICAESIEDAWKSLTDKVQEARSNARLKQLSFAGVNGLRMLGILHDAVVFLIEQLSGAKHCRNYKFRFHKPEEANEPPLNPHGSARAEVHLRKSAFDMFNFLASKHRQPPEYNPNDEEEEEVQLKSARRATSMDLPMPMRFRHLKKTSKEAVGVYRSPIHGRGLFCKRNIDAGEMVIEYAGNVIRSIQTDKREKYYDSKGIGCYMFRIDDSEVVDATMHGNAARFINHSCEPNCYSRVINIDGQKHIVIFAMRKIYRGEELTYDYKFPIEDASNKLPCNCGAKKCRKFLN

Row | SMILES | pIC50 [1] | pIC50 (MV4-11 [2]) | pIC50 (REH) | further results
1 | CCN(C(=O)c1cc(F)ccc1Nc1cncnc1N1CCN(CC2CN(c3ccc([N+](=O)[O-])cc3)C2)CC1)C(C)C | 7.30 |  |  | 
2 | CCC(=O)N[C@@H]1CCN(S(=O)(=O)c2ccc(N3CC(CN4CCN(c5ncncc5Nc5ccc(F)cc5C(=O)N(CC)C(C)C)CC4)C3)cc2)C1 | 7.28 | 5.83 | < 4.70 | 
3 | C=CC(=O)Nc1ccc(N2CC(CN3CCN(c4ncncc4Nc4ccc(F)cc4C(=O)N(C(C)C)C(C)C)CC3)C2)cc1 | 7.47 | 6.28 | 5.37 | 
4 | CCN(C(=O)c1cc(F)ccc1Nc1cncnc1N1CCN(CC2CN(c3ccc(S(=O)(=O)C4CN(C(=O)/C=C/CN5CCCCC5)C4)cc3)C2)CC1)C(C)C | 7.78 | 7.52 | 5.10 | 
5 | CCN(C(=O)c1cc(F)ccc1Nc1cncnc1N1CCN(CC2CN(c3ccc(C#N)cc3)C2)CC1)C(C)C | 7.41 |  |  | 
6 | CCC(=O)N1CC(S(=O)(=O)c2ccc(N3CC(CN4CCN(c5ncncc5Nc5ccc(F)cc5C(=O)N(C(C)C)C(C)C)CC4)C3)cc2)C1 | 7.48 | 6.68 | < 4.70 | 
7 | CCC(=O)N[C@H]1CCN(S(=O)(=O)c2ccc(N3CC(CN4CCN(c5ncncc5Nc5ccc(F)cc5C(=O)N(CC)C(C)C)CC4)C3)cc2)C1 | 7.21 | 5.65 | < 4.70 | 
8 | CCN(C(=O)c1cc(F)ccc1Oc1cncnc1N1CCN(CC2CN(c3ccc(S(=O)(=O)C4CN(C(=O)/C=C/CN(C)C)C4)cc3)C2)CC1)C(C)C | 7.84 | 7.40 | 4.94 | 
9 | CCN(C(=O)c1cc(F)ccc1Nc1cncnc1N1CCN(CC2CN(c3ccc(S(=O)(=O)C4CN(C(=O)/C=C/CN5CCCC5)C4)cc3)C2)CC1)C(C)C | 7.79 | 7.49 | 5.16 | 
10 | CCN(C(=O)c1cc(F)ccc1Nc1cncnc1N1CCN(CC2CN(c3ccc(S(=O)(=O)N4CC[C@H](NC(=O)/C=C/CN(C)C)C4)cc3)C2)CC1)C(C)C | 7.78 | 6.19 | < 4.70 | 
11 | C[C@@H]1C[C@@H]([C@H](O)CC2CC(=O)NC(=O)C2)C(=O)[C@@H](C)C1 [CYCLOHEXIMIDE] |  |  |  | fold change (FC) [3]: 0.55; fold change (FC) [4]: 0.41; fold change (FC) [5]: 0.007; fold change (FC) [6]: 0.007
12 | CCN(C(=O)c1cc(F)ccc1Nc1cncnc1N1CCN(CC2CN(c3ccc(S(=O)(=O)C4CN(C(=O)/C=C/CN(C)C)C4)cc3)C2)CC1)C(C)C | 7.85 | 7.52 | 5.71 | 
13 | C=CC(=O)N[C@@H]1CCN(S(=O)(=O)c2ccc(N3CC(CN4CCN(c5ncncc5Nc5ccc(F)cc5C(=O)N(CC)C(C)C)CC4)C3)cc2)C1 | 7.50 | 5.90 | < 4.70 | 
14 | CCN(C(=O)c1cc(F)ccc1Nc1cncnc1N1CCN(CC2CN(c3ccc(S(=O)(=O)N4CC[C@@H](NC(=O)/C=C/CN(C)C)C4)cc3)C2)CC1)C(C)C | 7.95 | 6.21 | < 4.70 | 
15 | C=CC(=O)N[C@H]1CCN(S(=O)(=O)c2ccc(N3CC(CN4CCN(c5ncncc5Nc5ccc(F)cc5C(=O)N(CC)C(C)C)CC4)C3)cc2)C1 | 7.29 | 6.22 | < 4.70 | 
16 | CC(C)C[C@H](NC(=O)[C@H](CCc1ccccc1)NC(=O)CN1CCOCC1)C(=O)N[C@@H](Cc1ccccc1)C(=O)N[C@@H](CC(C)C)C(=O)[C@@]1(C)CO1 [CARFILZOMIB] |  |  |  | fold change (FC) [7]: 1.16
17 | C=CC(=O)NC1CN(S(=O)(=O)c2ccc(N3CC(CN4CCN(c5ncncc5Nc5ccc(F)cc5C(=O)N(CC)C(C)C)CC4)C3)cc2)C1 | 7.64 | 6.55 | < 4.70 | 
18 | CCN(C(=O)c1cc(F)ccc1Nc1cncnc1N1CCN(CC2CN(c3ccc(S(C)(=O)=O)cc3)C2)CC1)C(C)C | 7.18 |  |  | 

Row | SMILES | pIC50 [1] | pIC50 (MV4-11 [2]) | pIC50 (REH) | further results
19 | C=CC(=O)N1CC(S(=O)(=O)c2ccc(N3CC(CN4CCN(c5ncncc5Nc5ccc(F)cc5C(=O)N(C(C)C)C(C)C)CC4)C3)cc2)C1 | 7.47 | 6.66 | 5.32 | 
20 | CCN(C(=O)c1cc(F)ccc1Nc1cncnc1N1CCN(CC2CN(c3ccc(C(F)(F)F)cc3)C2)CC1)C(C)C | 6.73 |  |  | 
21 | CCN(C(=O)c1cc(F)ccc1Nc1cncnc1N1C[C@@H](C)N(CC2CN(c3ccc(S(=O)(=O)C4CN(C(=O)/C=C/CN(C)C)C4)cc3)C2)C[C@@H]1C)C(C)C | 7.65 | 6.92 | 4.74 | 
22 | CCN(C(=O)c1cc(F)ccc1Nc1cncnc1N1CCN(CC2CN(c3ccc(NS(C)(=O)=O)cc3)C2)CC1)C(C)C | 7.56 |  |  | 
23 | CCN(C(=O)c1cc(F)ccc1Nc1cncnc1N1CCN(CC2CN(c3ccc(S(=O)(=O)N4CC(NC(=O)/C=C/CN(C)C)C4)cc3)C2)CC1)C(C)C | 7.91 | 6.55 | < 4.70 | 
24 | CCN(C(=O)c1cc(F)ccc1Nc1cncnc1N1CCN(CC2CN(c3ccc(S(N)(=O)=O)cc3)C2)CC1)C(C)C | 7.67 |  |  | 
25 | CCC(=O)Nc1cccc(N2CC(CN3CCN(c4ncncc4Nc4ccc(F)cc4C(=O)N(C(C)C)C(C)C)CC3)C2)c1 | 7.02 | 5.82 | < 4.70 | 
26 | CCN(C(=O)c1cc(F)ccc1Nc1cncnc1N1CCN(CC2CN(c3ccc(F)cc3)C2)CC1)C(C)C | 6.56 |  |  | 
27 | CCN(C(=O)c1cc(F)ccc1Nc1cncnc1N1CCN(C(C)C2CN(c3ccc(S(=O)(=O)C4CN(C(=O)/C=C/CN(C)C)C4)cc3)C2)CC1)C(C)C (stereo not given) | 7.74 | 6.85 | 5.10 | 
28 | C=CC(=O)Nc1cccc(N2CC(CN3CCN(c4ncncc4Nc4ccc(F)cc4C(=O)N(C(C)C)C(C)C)CC3)C2)c1 | 7.01 | 5.88 | 5.35 | 
29 | COC(=O)N[C@H]1CCC[C@@H]1[C@](C#N)(c1cccc(F)c1)C1CCN(CC2CN(c3ccc(S(=O)(=O)C4CN(C(=O)/C=C/CN(C)C)C4)cc3)C2)CC1 |  |  |  | pIC50 (MV4-11 [8]): 8.57
30 | CCC(=O)c1ccc(N2CC(CN3CCN(c4ncncc4Nc4ccc(F)cc4C(=O)N(CC)C(C)C)CC3)C2)cc1 | 7.30 |  |  | 
31 | CCC(=O)NC1CN(S(=O)(=O)c2ccc(N3CC(CN4CCN(c5ncncc5Nc5ccc(F)cc5C(=O)N(CC)C(C)C)CC4)C3)cc2)C1 | 7.47 | 6.06 | < 4.70 | 
32 | CCN(C(=O)c1cc(F)ccc1Nc1cncnc1N1CCN(C(=O)C2CN(c3ccc(S(=O)(=O)C4CN(C(=O)/C=C/CN(C)C)C4)cc3)C2)CC1)C(C)C | 7.89 | 7.30 | < 4.70 | 
33 | CCN(C(=O)c1cc(F)ccc1Oc1cncnc1N1CC2(CCN(C[C@H]3CC[C@H](NS(=O)(=O)CC)CC3)CC2)C1)C(C)C [REVUMENIB] | 7.81 |  |  | IC50 at 7 days [9]: > 3000 nM
34 | CCC(=O)Nc1ccc(N2CC(CN3CCN(c4ncncc4Nc4ccc(F)cc4C(=O)N(C(C)C)C(C)C)CC3)C2)cc1 | 7.32 | 6.11 | 5.08 | 
35 | CCN(C(=O)c1cc(F)ccc1Nc1cncnc1N1CCN(CC2CN(c3ccc(NC(=O)/C=C/CN(C)C)cc3)C2)CC1)C(C)C | 7.21 | 5.96 | < 4.70 | 
